Reference: article PMC6399351, “Cationic Intrinsically Disordered Antimicrobial Peptides (CIDAMPs) Represent a New Paradigm of Innate Defense with a Potential for Novel Anti-Infectives” (Scientific Reports, 2019)
In brackets after ≈: the same amount, converted by molar mass. Several values for one entry are separate records, joined by “and”; a condition that tells them apart may be missing. Equal values may be shown once. Read-outs that look alike come from different tables or passages of the source. Peptide text beside a SMILES is read from it. * marks the point of attachment. Palmitoyl = CCCCCCCCCCCCCCCC(=O)*

Assays:
[1] = test system: Klebsiella pneumoniae ATCC 13883; conditions: CFU assay, 10 mM NaP
[2] = test system: Burkholderia cepacia ATCC 25416; conditions: CFU assay, 10 mM NaP
E. coli ATCC 11775 = assay: CFU assay of antimicrobial activity; assay type: cell-based, Escherichia coli; conditions: 10 mM NaP
Procedure, shortened: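 Early log-phase bacteria grown in BHI were exposed at 10^4–10^5 CFU/ml for 2 h at ambient temperature. Two-fold serial dilutions spanned 300 or 150 µg/mL–19 ng/mL (synthetic peptides) or 100 µg/mL–25 ng/mL (recombinant HRNR fragments), and colonies were counted after 16 h at 37 °C.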

[3] = test system: Clostridium perfringens ATCC 13124; conditions: CFU assay, 10 mM NaP
P. aeruginosa ATCC 10145 = conditions: CFU assay, 10 mM NaP
[4] = test system: Klebsiella pneumonia ATCC 700603; conditions: MDR strain; CLSI, Mueller–Hinton broth, 5 × 10^5 CFU/mL, 18 h 37 °C, by CO-ADD
E. coli ATCC 25922 = assay: CO-ADD MIC, broth microdilution (CLSI); assay type: cell-based, Escherichia coli; conditions: Mueller–Hinton broth, 5 × 10^5 CFU/mL, 18 h 37 °C, by CO-ADD
Description: (§1) They were defined as the lowest peptide
(§2) Further details of the screening

[5] = test system: Moraxella osloensis RV A2/2001; conditions: CFU assay, 10 mM NaP, pH 7.3, 1% TSB
[6] = test system: Peptostreptococcus magnus ATCC 15794; assay: CFU assay of antimicrobial activity; assay type: cell-based, Peptostreptococcus magnus (now Finegoldia magna); conditions: 10 mM NaP, pH 7.3, 1% TSB
Procedure: (§3) All purified peptides and recombinant proteins were applied using a colony forming unit (CFU) assay in different media. Bacteria were grown to early log-phase in BHI, washed either with 10 mM Na-P, pH 7.4/1% TSB or pH 5.5/1% TSB, or pH 5.5 without TSB or BHI, and adjusted to a concentration of 10^4–10^5 colony forming units (CFU)/ml. For cell number control, 100 µl aliquots were diluted 1:10, 1:100 and 1:1000 and plated in duplicates on BHI agar plates. To 100 µl aliquots of the bacteria, suspended in the respective medium (10 mM Na-P buffer pH 7,0–7,4/ 1% (w/v) TSB; 10 mM Na-P buffer pH 5,5/ 1% (w/v) TSB; 10 mM Na-P buffer pH 7,0–7,4/ 1% (w/v) TSB pH 7,0–7,4/ 0,25% (w/v) glucose; 10 mM Na-P buffer pH 5,5/ 0,25% (w/v) glucose, respectively), 10 µl of a solution of the peptide or protein (two-fold dilutions, from 300 µg/ml or 150 µg/ml down to 19 ng/ml), dissolved in 0.01% (v/v) acetic acid, were added.
Then bacteria were incubated for 2 h at ambient temperature, if not otherwise stated. 10 µl of 0.01% (v/v) acetic acid, added to 100 µl aliquots of the bacteria in the respective medium, served as negative control. […] After 16 h incubation at 37 °C, CFU were counted using a colony counter (Bio Kobe, Japan) and expressed as mean of the duplicate estimation to achieve a complete dose-response curve. […]

[7] = test system: Pseudomonas aeruginosa ATCC 27853; assay: CO-ADD MIC, broth microdilution (CLSI); assay type: cell-based; conditions: Mueller–Hinton broth, 5 × 10^5 CFU/mL, 18 h 37 °C, by CO-ADD
Description: as §1, §2

[8] = test system: Acinetobacter baumannii ATCC 19606; assay: CO-ADD MIC, broth microdilution (CLSI); assay type: cell-based; conditions: Mueller–Hinton broth, 5 × 10^5 CFU/mL, 18 h 37 °C, by CO-ADD
Description: as §1, §2

[9] = test system: Propionibacterium acnes ATCC 6919; assay: CFU assay of antimicrobial activity; assay type: cell-based; conditions: 10 mM NaP
Procedure: as §3
(§4) Then bacteria were incubated for 2 h at ambient temperature, if not otherwise stated. 10 µl of 0.01% (v/v) acetic acid, added to 100 µl aliquots of the bacteria in the respective medium, served as negative control. From each test, 1:10 and 1:100 dilutions were generated and plated as duplicates of 100 µl aliquots on BHI agar plates. After 16 h incubation at 37 °C, CFU were counted using a colony counter (Bio Kobe, Japan) and expressed as mean of the duplicate estimation to achieve a complete dose-response curve. All experiments were performed at serial dilutions in a concentration range of 100 µg/mL −25 ng/mL for recombinant HRNR fragments and 300 or 150 µg/mL–19 ng/mL for synthetic peptides.

[10] = test system: Lactobacillus crispatus DSM 20584; assay: CFU assay of antimicrobial activity; assay type: cell-based; conditions: 10 mM NaP, pH 7.3, 1% TSB
Procedure: as §3, §4

[11] = test system: Staphylococcus epidermidis ATCC 14990; assay: CFU assay of antimicrobial activity; assay type: cell-based; conditions: 10 mM NaP
Procedure: as §3, §4

[12] = test system: Salmonella typhimurium ATCC 13311; assay: CFU assay of antimicrobial activity; assay type: cell-based; conditions: 10 mM NaP, pH 7.3, 1% TSB
Procedure: as §3, §4

S. aureus ATCC 6538 = conditions: CFU assay
[13] = test system: Staphylococcus aureus ATCC 43300; conditions: MRSA; CLSI, Mueller–Hinton broth, 5 × 10^5 CFU/mL, 18 h 37 °C, by CO-ADD
[14] = test system: Staphylococcus hominis ATCC 27844; conditions: CFU assay, 10 mM NaP, pH 7.3, 1% TSB
[15] = test system: Candida albicans ATCC 90028; assay: CO-ADD MIC, antifungal assay (CLSI); assay type: cell-based; conditions: Yeast Nitrogen Base broth, 24 h 35 °C, by CO-ADD
Procedure: (§5) Fungi strains were cultured for 3 days on Yeast Extract-Peptone Dextrose (YPD) agar at 30 °C. A yeast suspension of 1 × 10^6 to 5 × 10^6 cells/mL (as determined by OD530) was prepared from five colonies. These stock suspensions were diluted with Yeast Nitrogen Base (YNB) broth to a final concentration of 2.5 × 10^3 CFU/mL. […] Plates were covered and incubated at 35 °C for 24 h without shaking.

[16] = test system: Cryptococcus neoformans ATCC 208821; assay: CO-ADD MIC, antifungal assay (CLSI); assay type: cell-based; conditions: Yeast Nitrogen Base broth, 24 h 35 °C, by CO-ADD
Procedure: as §5

`CCCCCCCCCCCCCCCC(=O)NCC(=O)N[C@@H](CCCNC(=N)N)C(=O)N[C@@H](CCCNC(=N)N)C(=O)NCC(=O)NCC(=O)N[C@@H](CCCNC(=N)N)C(=O)NCC(=O)NCC(=O)N[C@@H](CCCNC(=N)N)C(=O)NCC(=O)N[C@@H](CCCNC(=N)N)C(=O)NCC(=O)N[C@@H](CCCNC(=N)N)C(=O)O` [Pal-GR13] (Palmitoyl-GRRGGRGGRGRGR-OH) showed an LD90 ([1]; pH 5.5, 0.25% glucose) of 0.15 µg/mL, an LD90 ([1]; pH 7.3, 1% TSB) of 1.18 µg/mL and an LD90 ([2]; pH 5.5, 0.25% glucose) greater than 300 µg/mL. For the same compound, the LD90 ([2]; pH 7.3, 0.25% glucose) was 4.7 µg/mL, the LD90 ([2]; pH 7.3, 1% TSB) was 18.75 µg/mL and the LD90 (E. coli ATCC 11775; pH 5.5, 0.25% glucose) was 0.15 µg/mL. For the same compound, the LD90 (E. coli ATCC 11775; pH 7.3, 1% TSB) was 1.18 µg/mL, the LD90 ([3]; pH 5.5, 0.25% glucose) was 37.5 µg/mL and the LD90 ([3]; pH 7.3, 0.25% glucose) was 4.7 µg/mL. It also gave an LD90 ([3]; pH 7.3, 1% TSB) of 18.75 µg/mL, an LD90 (P. aeruginosa ATCC 10145; pH 5.5, 0.25% glucose) of 0.075 µg/mL and an LD90 (P. aeruginosa ATCC 10145; pH 7.3, 1% TSB) of 0.3 µg/mL. For the same compound, the “Minimal inhibitory concentration (MIC)” value [4] was no less than 16 µg/mL, the “Minimal inhibitory concentration (MIC)” value (E. coli ATCC 25922) was 4 µg/mL (≈ 2.51 µM) and the LD90 [5] was 0.59 µg/mL. The LD90 [6] was 4.7 µg/mL, the “Minimal inhibitory concentration (MIC)” value [7] was 8 µg/mL (≈ 5.02 µM) and the “Minimal inhibitory concentration (MIC)” value [8] was 2 µg/mL (≈ 1.26 µM). For the same compound, the LD90 ([9]; pH 5.5, 0.25% glucose) was 0.3 µg/mL, the LD90 ([9]; pH 7.3, 0.25% glucose) was 0.59 µg/mL and the LD90 ([9]; pH 7.3, 1% TSB) was 1.18 µg/mL. The LD90 [10] was 9.38 µg/mL, the LD90 ([11]; pH 5.5, 0.25% glucose) was 9.38 µg/mL and the LD90 ([11]; pH 7.3, 1% TSB) was 0.59 µg/mL. For the same compound, the LD90 [12] was 2.35 µg/mL, the LD90 (S. aureus ATCC 6538; 10 mM NaP, pH 5.5, 0.25% glucose) was 0.075 µg/mL and 0.15 µg/mL and the LD90 (S. aureus ATCC 6538; 10 mM NaP, pH 5.5, 1% TSB) was 0.3 µg/mL. For the same compound, the LD90 (S. aureus ATCC 6538; 10 mM NaP, pH 7.3, 1% TSB) was 0.3 µg/mL, the LD90 (S. aureus ATCC 6538; value in molar units) was 47 nM and the “Minimal inhibitory concentration (MIC)” value [13] was 0.25 µg/mL (≈ 0.157 µM). The LD90 [14] was 1.18 µg/mL, the “Minimal inhibitory concentration (MIC)” value [15] was 4 µg/mL (≈ 2.51 µM) and the “Minimal inhibitory concentration (MIC)” value [16] was 0.25 µg/mL (≈ 0.157 µM).
